Where a SMILES comes first, the peptide text is derived from it. Where no end group is shown, it is not given here. [ ]: non-standard residue; d: D form. 3Abz = Nc1cccc(C(=O)O)c1; 4Abz = Nc1ccc(C(=O)O)cc1; 2Abz = Nc1ccccc1C(=O)O; Aib = CC(C)(N)C(=O)O
Experiments:
hIAPP1-37 = molecular target: T1, hIAPP1-37 (Homo sapiens, UniProt P10997); assay: Time dependent Thioflavin T assay, inhibition of amyloid formation of hIAPP; type: biochemical; conditions: 10-fold molar excess of peptidomimetic co-incubated with hIAPP 40 μM, PBS pH 7.4, 37 °C, up to 7 days; average of 3 replica
T1 construct: 3.1 mg of hIAPP(1-37) was dissolved in 50 μL of HFIP
T1 sequence (P10997 34-70): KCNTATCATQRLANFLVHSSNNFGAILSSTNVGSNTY
Procedure: To examine the inhibitory efficacy of the single breaker element (I26X) containing BSBHps (3, 4 and 5), we performed various biophysical studies in absence and presence of BSBHps and compared the effect with that of the control 2. The BSBHps and the control were co-incubated with hIAPP in PBS pH 7.4 at 37 °C up to 7 days and the kinetics of the amyloid formation was monitored using various biophysical tools. To investigate dose dependence, 2-, 5- and 10-fold molar excess of peptidomimetics were incubated with hIAPP.
(§1) 3.1 mg of hIAPP(1-37) was dissolved in 50 μL of HFIP to obtain disaggregated hIAPP and HFIP was evaporated using nitrogen gas[43]. This process was repeated twice. Then, 5 mL of Milli Q water was added to the disaggregated material and divided the whole solution into 25 equal portions with 200 μL each. All 25 portions are lyophilized followed by addition of 800 μL of PBS (50 mM, pH 7.4) to each portion to obtain a final hIAPP concentration of 40 μM.
(§2) 50 μM Thioflavin T (ThT) in PBS (50 mM, pH 7.4) was prepared. All the synthesized peptides and hIAPP (alone and in some cases mixed with breaker peptides) were dissolved in PBS (50 mM, pH 7.4) to obtain a desired stock solution (40 μM in the case of hIAPP) and incubated at 37 °C over a water bath. To perform the fluorescence study, 40 μL of sample was taken out from the stock solution and was mixed with 200 μL of ThT solution (50 μM); final volume was made up to 400 μL with PBS. For ThT fluorescence assay, emission was measured at 490 nm and excitation at 435 nm, using a slit of 3 nm on a Fluoromax-4, Horiba instrument. The text files were taken from the instrument and graphs were plotted using OriginPro 8 software. For each data point 3 different sets of replica were scanned separately and average was taken with observed standard deviation.

[1] = molecular target: T2, preformed fibrils of hIAPP (Homo sapiens, UniProt P10997); assay: Time dependent Thioflavin T assay, disruption of preformed fibrils of hIAPP; type: biochemical; conditions: 10-fold molar excess added at 48 h to hIAPP 40 μM preincubated in PBS pH 7.4, 37 °C; total 7 (2 + 5) days; average of 3 replica
T2 construct: 3.1 mg of hIAPP(1-37) was dissolved in 50 μL of HFIP
T2 sequence (P10997 34-70): T1 sequence (P10997 34-70)
Procedure: We already observed that the BSBHps (3, 4, 7, and 8) were efficient inhibitors. Further, we investigated the ability of those molecules to disrupt preformed fibrils of hIAPP in vitro. From the ThT assay (black, Fig. 2a), we observed that hIAPP fibrillzation was maximum at ~45–50 h. Therefore, we designed an experiment where the BSBHps were added into the preformed fibrillar assembly at 48 h (2 days). The hIAPP was incubated alone in PBS pH 7.4 at 37 °C for 48 h (2 days) and then varied molar excess (2-, 5-, and 10-fold) of designed peptidomimetics were added to it and fibril disruption was monitored by various biophysical tools.
as §1, §2

[2] = Stability in presence of human serum (proteolytic enzymes); type: in vitro ADME; conditions: RPMI 1640 with 10% human serum (v/v), 37 °C, 15 min pre-incubation, 10 μL of 5 mg/mL DMSO stock in 1 mL, RP-HPLC and mass spectrometry
Source text: Further, to test the stability of these peptidommetics in biological system we performed in vitro stability study in presence of human serum[37][38] which contained sufficient concentration of proteolytic enzymes. We selected BSBHPs 3 and 7, as from the results of all the experiments described above it was clear that BSBHps 3 (one breaker element containing) and 7 (two breaker elements containing) were the best among all the synthesized peptidomimetics. We compared the stability of 3 and 7 with their native peptide analogue (1) using time dependent HPLC & Mass spectrometry studies.
1 mL of the RPMI (Roswell Park Memorial Institute) 1640 media supplemented with 10% human serum (v/v) obtained from Thermo Fisher Scientific was taken in three different 2 mL eppendorf tube and incubated them at 37 °C for 15 min[38]. Then, 10 μL of the peptidomimetics (1, 3 & 7) in DMSO (5 mg/mL) were separately added to the RPMI media and incubated them at 37 °C. At different time interval 100 μL of the aliquot was taken out from the three different eppendorf tubes and added to 200 μL ethanol solution (96% aqueous ethanol) for precipitation of the serum protein. The precipitate was cooled (4 °C) for 10 min and then centrifuged at 18,000 rpm for 2 min and the pellet was discarded. The supernatant was collected and analyzed by RP-HPLC & Mass spectrometry. A linear gradient was used in the HPLC, from 5–100% CH3CN for 18 min followed by 100% CH3CN till 20 min with a flow rate of 4 mL/min using a semi-preparative C18-μ Bondapak column. Binary solvent system were used, solvent A (0.1% TFA in H2O) and solvent B (0.1% TFA in CH3CN).

[3] = Carboxyfluorescein dye leakage assay; conditions: sample 2: hIAPP incubated for 12 h; LUVs DPPC:cholesterol:GM1 68:30:2, 50 mM HEPES pH 7.4; peptide:lipid 1:20; 0 to 100 min
Procedure: The hIAPP soluble oligomers are known as more toxic than the matured amyloid, since they can damage the cell by forming pores on the cell membrane. […] To perform the vesicle leakage study, we have prepared 9 sets of different samples including untreated LUVs (without any peptide) as control for the experiment. All the peptidomimetics were added to hIAPP solution after 48 h of incubation and kept for total of 7 days (168 h = 48 h + 120 h) of incubation. After that different peptide solutions were added separately to the LUVs and leakage studies were performed. The different type of samples that were prepared is described below;
The peptide and the lipid were present in 1:20 molar ratios during leakage analysis. At the end of the experiment 10 μL of Triton X-100 was added to obtain complete dye release from the vesicle and the final fluorescence was measured. In addition to those, untreated LUVs (natural dye leakage) were studied and used as control. % dye leakage was calculated as[35],
The LUVs were prepared using three different lipids, DPPC, Cholesterol and GM1 with 68:30:2 molar ratios in 50 mM HEPES buffer of pH 7.4. Prior to the LUVs preparation, all the lipids were taken in clean glass vessel and solubilize to make 2 mM stock solution in chloroform and methanol (2:1) and the solvents were evaporated under vacuum. […]

Compound | Inhibition of hIAPP amyloid formation (suppression of ThT fluorescence intensity) (hIAPP1-37) | Disruption of preformed hIAPP amyloid (ThT assay) [1] | other results
CC(C)C[C@H](NC(=O)c1ccc(NC(=O)[C@H](C)NC(=O)CNC(=O)[C@H](Cc2ccccc2)NC(=O)[C@@H](N)CC(N)=O)cc1)C(N)=O [Peptide 5] (H-NFGA[4Abz]L-NH2) | – | – | Enhancement of ThT fluorescence intensity of hIAPP (hIAPP1-37): ~ 5%
CC(C)C[C@H](NC(=O)C(C)(C)NC(=O)[C@H](C)NC(=O)C(C)(C)NC(=O)[C@H](Cc1ccccc1)NC(=O)[C@@H](N)CC(N)=O)C(N)=O [Peptide 6] (H-NF[Aib]A[Aib]L-NH2) | ~ 52% | ~ 40% | –
CC(C)C[C@H](NC(=O)c1ccccc1NC(=O)[C@H](C)NC(=O)c1ccccc1NC(=O)[C@H](Cc1ccccc1)NC(=O)[C@@H](N)CC(N)=O)C(N)=O [Peptide 7] (H-NF[2Abz]A[2Abz]L-NH2) | ~ 70% | ~ 57% | Degradation in presence of human serum at 25 h [2]: complete retention of the peak
CC(C)C[C@H](NC(=O)c1ccc(NC(=O)[C@H](C)NC(=O)c2ccc(NC(=O)[C@H](Cc3ccccc3)NC(=O)[C@@H](N)CC(N)=O)cc2)cc1)C(N)=O [Peptide 9] (H-NF[4Abz]A[4Abz]L-NH2) | – | – | Enhancement of ThT fluorescence intensity of hIAPP (hIAPP1-37): ~ 12%
CC[C@H](C)[C@H](NC(=O)[C@H](C)NC(=O)CNC(=O)[C@H](Cc1ccccc1)NC(=O)[C@H](CC(N)=O)NC(=O)[C@H](CC(N)=O)NC(=O)[C@H](CO)NC(=O)[C@H](CO)NC(=O)[C@H](Cc1c[nH]cn1)NC(=O)[C@@H](NC(=O)[C@H](CC(C)C)NC(=O)[C@H](Cc1ccccc1)NC(=O)[C@H](CC(N)=O)NC(=O)[C@H](C)NC(=O)[C@H](CC(C)C)NC(=O)[C@H](CCCNC(=N)N)NC(=O)[C@H](CCC(N)=O)NC(=O)[C@@H](NC(=O)[C@H](C)NC(=O)[C@@H]1CSSC[C@H](NC(=O)[C@@H](N)CCCCN)C(=O)N[C@@H](CC(N)=O)C(=O)N[C@@H]([C@@H](C)O)C(=O)N[C@@H](C)C(=O)N[C@@H]([C@@H](C)O)C(=O)N1)[C@@H](C)O)C(C)C)C(=O)N[C@@H](CC(C)C)C(=O)N[C@@H](CO)C(=O)N[C@@H](CO)C(=O)N[C@H](C(=O)N[C@@H](CC(N)=O)C(=O)N[C@H](C(=O)NCC(=O)N[C@@H](CO)C(=O)N[C@@H](CC(N)=O)C(=O)N[C@H](C(=O)N[C@@H](Cc1ccc(O)cc1)C(N)=O)[C@@H](C)O)C(C)C)[C@@H](C)O [hIAPP] | – | – | Dye leakage of LUVs treated with hIAPP [3]: rapid increment of dye leakage
NFGAIL-NH2 [Peptide 1, reference compound] | – | – | Degradation in presence of human serum after 1 h ([2]; after 1 h): complete degradation

Second part, led by results:

Inhibition of hIAPP amyloid formation (suppression of ThT fluorescence intensity) (hIAPP1-37) | Disruption of preformed hIAPP amyloid (ThT assay) [1] | Compound | other results
~ 40% | ~ 23% | CC(C)C[C@H](NC(=O)C(C)(C)NC(=O)[C@H](C)NC(=O)CNC(=O)[C@H](Cc1ccccc1)NC(=O)[C@@H](N)CC(N)=O)C(N)=O [Peptide 2] (H-NFGA[Aib]L-NH2) | –
~ 55% | ~ 40% | CC(C)C[C@H](NC(=O)c1ccccc1NC(=O)[C@H](C)NC(=O)CNC(=O)[C@H](Cc1ccccc1)NC(=O)[C@@H](N)CC(N)=O)C(N)=O [Peptide 3] (H-NFGA[2Abz]L-NH2) | Degradation in presence of human serum at 25 h [2]: some degradation
~ 50% | ~ 33% | CC(C)C[C@H](NC(=O)c1cccc(NC(=O)[C@H](C)NC(=O)CNC(=O)[C@H](Cc2ccccc2)NC(=O)[C@@H](N)CC(N)=O)c1)C(N)=O [Peptide 4] (H-NFGA[3Abz]L-NH2) | –
~ 65% | ~ 44% | CC(C)C[C@H](NC(=O)c1cccc(NC(=O)[C@H](C)NC(=O)c2cccc(NC(=O)[C@H](Cc3ccccc3)NC(=O)[C@@H](N)CC(N)=O)c2)c1)C(N)=O [Peptide 8] (H-NF[3Abz]A[3Abz]L-NH2) | –

Reference: paper PMC5214534, “Disaggregation of Amylin Aggregate by Novel Conformationally Restricted Aminobenzoic Acid containing α/β and α/γ Hybrid Peptidomimetics” (Scientific Reports, 2017)
